Test systems include HL-60(TB) leukemia; U251 CNS; MDA-MB-435; UACC-62 melanoma; NCI/ADR-RES ovarian; COLO 205 colon; 786-0 renal; RXF 393 renal; EKVX NSCLC; BT-549 breast; A498 renal; OVCAR-4 ovarian; CCRF-CEM leukemia.
What all share (assay): NCI tumour cell line growth inhibition, 48 h

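48-hour exposure; five concentrations; linearly interpolated endpoints. The concentration for full growth arrest is given as TGI.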 Where a SMILES comes first, the peptide text is derived from it. [ ]: non-standard residue; d: D form. pGlu = O=C1CC[CH](C(=O)O)N1; Thz = O=C(O)[CH]1CSCN1

On to `CCCCCCN(CCCCCC)CCC(=O)c1ccc2cc(Br)c3ccccc3c2c1`, for which the TGI in the assay with HL-60(TB) leukemia is 56.2 µM; in the assay on U251 CNS it was greater than 100 µM; with MDA-MB-435 it was 74.3 µM; in the assay with UACC-62 melanoma, 74.5 µM; in the assay with NCI/ADR-RES ovarian, greater than 100 µM; in the assay on COLO 205 colon, 80.4 µM. Moreover, the TGI was greater than 100 µM with 786-0 renal; 64.3 µM in the assay with RXF 393 renal; greater than 100 µM with EKVX NSCLC; 51.6 µM with BT-549 breast; greater than 100 µM in the assay on A498 renal.

For `O=C(Nc1ccccc1)N(CCN(Cc1ccccc1)C(=O)Nc1ccccc1)CCN(Nc1ccccc1)C(=O)Nc1ccccc1`, the TGI in the assay with HL-60(TB) leukemia, with U251 CNS, with MDA-MB-435, in the assay on UACC-62 melanoma, with NCI/ADR-RES ovarian and with COLO 205 colon was greater than 100 µM throughout. In addition, the TGI in the assay with 786-0 renal, with RXF 393 renal, in the assay on EKVX NSCLC, in the assay with OVCAR-4 ovarian, in the assay on BT-549 breast and with CCRF-CEM leukemia was greater than 100 µM throughout. The molecule also returned a TGI in the assay with A498 renal greater than 100 µM.

For `O=c1onc2n1-c1ccc(Cl)cc1C(=S)N1CSCC21` (stereo not drawn), the TGI in the assay on U251 CNS was 35.9 µM; in the assay on MDA-MB-435 it was 23.8 µM; in the assay on UACC-62 melanoma, greater than 100 µM; with NCI/ADR-RES ovarian, 36.4 µM; in the assay on COLO 205 colon, 35.1 µM; in the assay on 786-0 renal, greater than 100 µM. The TGI is 89.2 µM in the assay on RXF 393 renal; greater than 100 µM in the assay on EKVX NSCLC; greater than 100 µM in the assay with OVCAR-4 ovarian; 67.4 µM in the assay with BT-549 breast; greater than 100 µM with CCRF-CEM leukemia; 64 µM in the assay on A498 renal.

For `CCCCSC1=N/C(=C\c2ccccc2O)C(=O)N1`, the TGI in the assay on HL-60(TB) leukemia, in the assay with U251 CNS, in the assay with MDA-MB-435, in the assay with UACC-62 melanoma, with NCI/ADR-RES ovarian and in the assay on COLO 205 colon was greater than 100 µM in each case. The TGI in the assay with 786-0 renal, in the assay on RXF 393 renal, in the assay on EKVX NSCLC, in the assay on OVCAR-4 ovarian, in the assay on BT-549 breast and in the assay on A498 renal was greater than 100 µM throughout.

Consider `Cn1c(-c2ccc(C=O)o2)ccc1-c1ccc(C=O)o1`, for which the TGI in the assay on HL-60(TB) leukemia was 46 µM; in the assay with U251 CNS, greater than 100 µM; in the assay with MDA-MB-435, greater than 100 µM; in the assay on UACC-62 melanoma, greater than 100 µM; in the assay on NCI/ADR-RES ovarian, greater than 100 µM; in the assay with COLO 205 colon it was greater than 100 µM. Also, the TGI in the assay on 786-0 renal, with RXF 393 renal, in the assay with EKVX NSCLC, in the assay with OVCAR-4 ovarian, in the assay on BT-549 breast and in the assay on CCRF-CEM leukemia was greater than 100 µM throughout. The TGI in the assay with A498 renal was greater than 100 µM.

For the molecule `CC1OC(OC2C(O)COC(OC3C(C)OC(OC4C(OC(=O)[C@]56CCC(C)(C)C[C@@H]5C5=CCC7[C@@]8(C)C[C@H](O)[C@H](OC9OC(CO)C(O)C(O)C9O)[C@@](C)(CO)[C@@H]8CC[C@@]7(C)[C@]5(C)CC6)OCC(O)C4O)C(O)C3O)C2O)C(O)C(O)C1O` (stereo partly drawn), the TGI came out at 54.9 µM with U251 CNS; 57.7 µM in the assay with MDA-MB-435; 40.1 µM with UACC-62 melanoma; 44.9 µM in the assay on NCI/ADR-RES ovarian; 38.7 µM in the assay on COLO 205 colon; 38 µM in the assay with 786-0 renal. The TGI with RXF 393 renal was determined as 33.5 µM; with EKVX NSCLC, 33.1 µM; in the assay with OVCAR-4 ovarian, 52.1 µM; in the assay on BT-549 breast, 45.7 µM; with CCRF-CEM leukemia, 45.8 µM; in the assay on A498 renal it was 36 µM.

As to `CCOC(=O)CNC(=O)C(CCC(=O)N(C)O)NC(=O)CCC(N)C(=O)O` (stereo not drawn), the TGI with HL-60(TB) leukemia, in the assay with U251 CNS, with MDA-MB-435, in the assay with UACC-62 melanoma, in the assay with NCI/ADR-RES ovarian and in the assay with COLO 205 colon was greater than 100 µM in each case. Besides, the TGI in the assay on 786-0 renal, with RXF 393 renal, in the assay on EKVX NSCLC, in the assay on OVCAR-4 ovarian, in the assay on BT-549 breast and in the assay with CCRF-CEM leukemia was greater than 100 µM in each case. The molecule further came in with a TGI with A498 renal greater than 100 µM.

For the molecule `CC1C(C)(C)C23CC12C1(OCCO1)C3Br` (stereo not drawn), the TGI in the assay on HL-60(TB) leukemia, in the assay with U251 CNS, in the assay with MDA-MB-435, in the assay on UACC-62 melanoma, with NCI/ADR-RES ovarian and with COLO 205 colon was greater than 100 µM in each case. The TGI in the assay on 786-0 renal, in the assay with RXF 393 renal, in the assay on EKVX NSCLC, in the assay on OVCAR-4 ovarian, in the assay with BT-549 breast and in the assay on CCRF-CEM leukemia was greater than 100 µM throughout. This molecule also registered a TGI in the assay on A498 renal greater than 100 µM.

Regarding `Cc1cc(N(CCC#N)CCC#N)ccc1/C(N=Nc1ccc([N+](=O)[O-])cc1)=N\NC(=O)c1cc(Cl)ccc1O`, the TGI in the assay on U251 CNS is greater than 100 µM; in the assay with MDA-MB-435, greater than 100 µM; in the assay on UACC-62 melanoma, 67.6 µM; in the assay on NCI/ADR-RES ovarian, greater than 100 µM; in the assay on COLO 205 colon, 54.2 µM; with 786-0 renal, greater than 100 µM. Besides, the TGI with RXF 393 renal was greater than 100 µM; in the assay with EKVX NSCLC, 82.4 µM; in the assay on OVCAR-4 ovarian it was greater than 100 µM; with BT-549 breast it was greater than 100 µM; in the assay with CCRF-CEM leukemia it was greater than 100 µM; in the assay on A498 renal it was 94.5 µM.

In the case of `CC(=O)Nc1nc(C)c(S(=O)(=O)NC(=O)NC2NC(=O)NC2=O)s1` (stereo not drawn), the TGI in the assay with HL-60(TB) leukemia, with U251 CNS, with MDA-MB-435, with UACC-62 melanoma, in the assay on NCI/ADR-RES ovarian and in the assay on COLO 205 colon was greater than 100 µM in each case. Further, the TGI in the assay with 786-0 renal, in the assay with RXF 393 renal, in the assay with EKVX NSCLC, in the assay with OVCAR-4 ovarian, with BT-549 breast and in the assay with CCRF-CEM leukemia was greater than 100 µM in each case. Besides, the TGI with A498 renal is greater than 100 µM.

With `O=C1CCC(C(=O)N2CSCC2C(=O)O)N1` (stereo not drawn) ([pGlu]-[Thz]-OH; configuration not given here), the TGI with HL-60(TB) leukemia, in the assay on MDA-MB-435, in the assay with UACC-62 melanoma, in the assay with NCI/ADR-RES ovarian, in the assay on 786-0 renal and with RXF 393 renal was greater than 100 µM throughout. Besides, the TGI with BT-549 breast, in the assay with CCRF-CEM leukemia and in the assay with A498 renal was greater than 100 µM in each case.

On to `C(=N\c1nc2cc3sc(/N=C/c4ccccc4)nc3cc2s1)/c1ccccc1`, for which the TGI in the assay on U251 CNS, with MDA-MB-435, in the assay with UACC-62 melanoma, in the assay on NCI/ADR-RES ovarian, with COLO 205 colon and in the assay on 786-0 renal was greater than 100 µM in each case. Further, the TGI is greater than 100 µM with RXF 393 renal; greater than 100 µM in the assay with EKVX NSCLC; greater than 100 µM in the assay with OVCAR-4 ovarian; greater than 100 µM in the assay on BT-549 breast; 42 µM in the assay on CCRF-CEM leukemia; greater than 100 µM in the assay with A498 renal.

Take `COC1OC2COC1(OCc1ccccc1)C1OC(C)(C)OC21` (stereo not drawn): the TGI in the assay on U251 CNS, in the assay on MDA-MB-435, in the assay with UACC-62 melanoma, in the assay on NCI/ADR-RES ovarian, with COLO 205 colon and with 786-0 renal was greater than 100 µM throughout. Also, the TGI in the assay with RXF 393 renal, in the assay with EKVX NSCLC, in the assay with OVCAR-4 ovarian, with BT-549 breast, with CCRF-CEM leukemia and in the assay with A498 renal was greater than 100 µM each time.

As to `Cc1c(NC(=S)Nc2ccc([N+](=O)[O-])cc2)c(=O)n(-c2ccccc2)n1C`, the TGI with HL-60(TB) leukemia, in the assay with U251 CNS, in the assay with MDA-MB-435, with UACC-62 melanoma, in the assay with NCI/ADR-RES ovarian and with COLO 205 colon was greater than 100 µM throughout. Moreover, the TGI with 786-0 renal, with RXF 393 renal, in the assay on EKVX NSCLC, in the assay on BT-549 breast, in the assay with CCRF-CEM leukemia and in the assay with A498 renal was greater than 100 µM each time.

Turning to `COC(NC(=O)Nc1ccc(C)cc1)(C(F)(F)F)C(F)(F)F`, the TGI with HL-60(TB) leukemia was greater than 100 µM; with U251 CNS it was 45 µM; with MDA-MB-435, greater than 100 µM; with UACC-62 melanoma, greater than 100 µM; in the assay on NCI/ADR-RES ovarian, 84.7 µM; in the assay on COLO 205 colon, 36.8 µM. In addition, the TGI is greater than 100 µM with 786-0 renal; 71.7 µM with RXF 393 renal; greater than 100 µM with OVCAR-4 ovarian; 83.5 µM in the assay with BT-549 breast; greater than 100 µM in the assay on CCRF-CEM leukemia; 90.1 µM with A498 renal.

`COc1ccc(/[N+]([O-])=C/c2ccc(OC(=S)S)c(OC)c2)cc1`: the TGI is 53.4 µM in the assay with HL-60(TB) leukemia; greater than 100 µM in the assay with U251 CNS; 61.1 µM in the assay on MDA-MB-435; greater than 100 µM with UACC-62 melanoma; 92.3 µM in the assay on NCI/ADR-RES ovarian; greater than 100 µM with COLO 205 colon. The TGI with 786-0 renal is greater than 100 µM; with RXF 393 renal, 50.9 µM; in the assay with EKVX NSCLC, greater than 100 µM; with OVCAR-4 ovarian, 49 µM; with BT-549 breast, 79.7 µM; in the assay on A498 renal, greater than 100 µM.
